In PMC8963254, “Effects of Lysine N-ζ-Methylation in Ultrashort Tetrabasic Lipopeptides (UTBLPs) on the Potentiation of Rifampicin, Novobiocin, and Niclosamide in Gram-Negative Bacteria” (Antibiotics, 2022):
Like-named read-outs stand apart in the source and are kept apart here.

What was measured:
E. faecium ATCC 27270 = format: cell-based, Enterococcus faecium; conditions: ATCC 27270, 18 h
Experimental: (§1) The in vitro antibacterial activity of the UTBLPs was assessed against wild-type and clinically isolated bacterial strains. To obtain the MIC of the compounds, the microbroth dilution susceptibility assay was performed according to the Clinical and Laboratory Standards Institute (CLSI, Wayne, PA, USA) guidelines and as previously described. Briefly, the compounds at varying concentrations were incubated with bacterial inoculum (5 × 10^5 CFU/mL final concentration) at 37 °C for 18 h. Growth in the form of turbidity was confirmed using an EMax Plus microplate reader (Molecular Devices, San Jose, CA, USA) at 590 nm.

A. baumannii ATCC 17978 [1] = format: cell-based, Acinetobacter baumannii; conditions: ATCC 17978, 18 h
Experimental: as §1

K. pneumoniae 113250 = format: cell-based, Klebsiella pneumoniae; conditions: for MICUTBLP: UTBLP alone
Experimental: (§2) The synergy of the UTBLPs with various antibiotics was assessed using checkerboard assay as previously described. Briefly, the combination of antibiotic and OMP at varying concentrations were incubated with bacterial inoculum (5 × 10^5 CFU/mL final concentration) at 37 °C for 18 h. Growth in the form of turbidity was confirmed using an EMax Plus microplate reader (Molecular Devices, Union City, CA, USA) at 590 nm. Fractional inhibitory concentration index (FICI) was used to evaluate the interaction between the antibiotic and the OMP. FICI is the sum of the FIC of the antibiotic and the FIC of the OMP. The FIC value is calculated by dividing the MIC of the agents in combination by the MIC of the agent alone. FICI ≤ 0.5 is synergistic, 0.5 < x ≤ 4 is additive, and >4 is antagonistic.

MSSE 81388 [2] = format: cell-based, Staphylococcus epidermidis; conditions: 18 h
Experimental: as §1

MRSE 61589 [3] = format: cell-based, Staphylococcus epidermidis; conditions: 61589, 18 h
Experimental: as §1

MSSE 81388 [4] = format: cell-based, Staphylococcus epidermidis
Experimental: as §2

MRSE 61589 [5] = format: cell-based, Staphylococcus epidermidis
Experimental: as §2

[6] = system: P. aeruginosa PA259-96196; assay: microbe, parasite or virus in culture; format: cell-based, Pseudomonas aeruginosa; conditions: PA259-96196, 18 h
Experimental: as §1

[7] = system: P. aeruginosa PA262-101856; assay: microbe, parasite or virus in culture; format: cell-based, Pseudomonas aeruginosa; conditions: PA262-101856, 18 h
Experimental: as §1

E. coli ATCC 25922 [8] = format: cell-based, Escherichia coli; conditions: for MICUTBLP: UTBLP alone
Experimental: as §2

E. coli 94474 = format: cell-based, Escherichia coli; conditions: for MICUTBLP: UTBLP alone
Experimental: as §2

E. coli 94393 = format: cell-based, Escherichia coli; conditions: for MICUTBLP: UTBLP alone
Experimental: as §2

E. coli ATCC 25922 [9] = format: cell-based, Escherichia coli; conditions: ATCC 25922, 18 h
Experimental: as §1

A. baumannii AB027 = format: cell-based, Acinetobacter baumannii; conditions: for MICUTBLP: UTBLP alone
Experimental: as §2

A. baumannii ATCC 17978 [10] = format: cell-based, Acinetobacter baumannii; conditions: for MICUTBLP: UTBLP alone
Experimental: as §2

A. baumannii 92247 = format: cell-based, Acinetobacter baumannii; conditions: for MICUTBLP: UTBLP alone
Experimental: as §2

E. faecalis ATCC 29212 = format: cell-based, Enterococcus faecalis; conditions: ATCC 29212, 18 h
Experimental: as §1

[11] = UTBLP in combination with novobiocin
[12] = UTBLP in combination with rifampicin
[13] = novobiocin in combination with the UTBLP
[14] = rifampicin in combination with the UTBLP
[15] = UTBLP alone, plate with chloramphenicol
[16] = UTBLP in combination with chloramphenicol
[17] = chloramphenicol in combination with the UTBLP
[18] = UTBLP in combination with niclosamide
[19] = niclosamide in combination with the UTBLP

CCCCCCCC(=O)N[C@@H](CCCCN(C)C)C(=O)NCCCN(CCCNC(=O)[C@H](CCCCN(C)C)NC(=O)CCCCCCC)CC(=O)N[C@@H](CCCCN(C)C)C(N)=O [UTBLP 3]
0.25 µg/mL: MICUTBLP [MICcombo] (MSSE 81388 [4]; [16]) | MICUTBLP [MICcombo] (MRSE 61589 [5]; [16]) | MICUTBLP [MICcombo] (A. baumannii ATCC 17978 [10]; [18]) | MICantibiotic [MICcombo] (A. baumannii 92247; [14])
Synergy (FICI ≤ 0.5 is synergistic): Interpretation (K. pneumoniae 113250; UTBLP + novobiocin) | Interpretation (K. pneumoniae 113250; UTBLP + rifampicin) | Interpretation (E. coli ATCC 25922 [8]; UTBLP + niclosamide) | Interpretation (E. coli ATCC 25922 [8]; UTBLP + novobiocin) | Interpretation (E. coli ATCC 25922 [8]; UTBLP + rifampicin) | Interpretation (E. coli 94474; UTBLP + novobiocin) | Interpretation (E. coli 94393; UTBLP + novobiocin) | Interpretation (E. coli 94393; UTBLP + rifampicin) | Interpretation (A. baumannii AB027; UTBLP + novobiocin) | Interpretation (A. baumannii ATCC 17978 [10]; UTBLP + novobiocin) | Interpretation (A. baumannii ATCC 17978 [10]; UTBLP + rifampicin) | Interpretation (A. baumannii 92247; UTBLP + novobiocin) | Interpretation (A. baumannii 92247; UTBLP + rifampicin)
1024 µg/mL: MICantibiotic [MICcombo] (A. baumannii ATCC 17978 [10]; [19])
16 µg/mL: MICUTBLP [MICcombo] (K. pneumoniae 113250; [11]) | MICUTBLP [MICcombo] (K. pneumoniae 113250; [12]) | MICchloramphenicol [MICcombo] (MRSE 61589 [5]; [17]) | MICUTBLP [MICcombo] (E. coli ATCC 25922 [8]; [18]) | MICUTBLP [MICcombo] (E. coli ATCC 25922 [8]; [11]) | MICUTBLP [MICcombo] (E. coli ATCC 25922 [8]; [12]) | MICUTBLP [MICcombo] (E. coli 94474; [11]) | MICUTBLP [MICcombo] (E. coli 94474; [12]) | MICUTBLP [MICcombo] (E. coli 94393; [11]) | MICUTBLP [MICcombo] (E. coli 94393; [12]) | MICUTBLP [MICcombo] (A. baumannii AB027; [11]) | MICUTBLP [MICcombo] (A. baumannii ATCC 17978 [10]; [16]) | MICUTBLP [MICcombo] (A. baumannii 92247; [12])
8 µg/mL: MICchloramphenicol [MICcombo] (MSSE 81388 [4]; [17]) | MICantibiotic [MICcombo] (E. coli ATCC 25922 [8]; [19]) | MICantibiotic [MICcombo] (E. coli 94393; [13]) | MICUTBLP [MICcombo] (A. baumannii ATCC 17978 [10]; [11]) | MICUTBLP [MICcombo] (A. baumannii ATCC 17978 [10]; [12]) | MICUTBLP [MICcombo] (A. baumannii 92247; [11])
64 µg/mL: MICantibiotic [MICcombo] (A. baumannii ATCC 17978 [10]; [17])
> 128 µg/mL: MICUTBLP (K. pneumoniae 113250; plate with novobiocin) | MICUTBLP (K. pneumoniae 113250; plate with rifampicin) | MIC (MSSE 81388 [2]) | MIC (MRSE 61589 [3]) | MICUTBLP (MSSE 81388 [4]; [15]) | MICUTBLP (MRSE 61589 [5]; [15]) | MIC [6] | MIC [7] | MICUTBLP (E. coli ATCC 25922 [8]; plate with chloramphenicol) | MICUTBLP (E. coli ATCC 25922 [8]; plate with niclosamide) | MICUTBLP (E. coli ATCC 25922 [8]; plate with novobiocin) | MICUTBLP (E. coli ATCC 25922 [8]; plate with rifampicin) | MICUTBLP (E. coli 94474; plate with novobiocin) | MICUTBLP (E. coli 94474; plate with rifampicin) | MICUTBLP (E. coli 94393; plate with novobiocin) | MICUTBLP (E. coli 94393; plate with rifampicin) | MICUTBLP (A. baumannii AB027; plate with novobiocin) | MICUTBLP (A. baumannii AB027; plate with rifampicin) | MICUTBLP (A. baumannii ATCC 17978 [10]; plate with chloramphenicol) | MICUTBLP (A. baumannii ATCC 17978 [10]; plate with niclosamide) | MICUTBLP (A. baumannii ATCC 17978 [10]; plate with novobiocin) | MICUTBLP (A. baumannii ATCC 17978 [10]; plate with rifampicin) | MICUTBLP (A. baumannii 92247; plate with novobiocin) | MICUTBLP (A. baumannii 92247; plate with rifampicin)
1 µg/mL: MICantibiotic [MICcombo] (E. coli ATCC 25922 [8]; [14]) | MICantibiotic [MICcombo] (E. coli 94393; [14]) | MICantibiotic [MICcombo] (A. baumannii ATCC 17978 [10]; [13]) | MICantibiotic [MICcombo] (A. baumannii 92247; [13])
0.5 µg/mL: MICUTBLP [MICcombo] (E. coli ATCC 25922 [8]; [16]) | MICantibiotic [MICcombo] (A. baumannii AB027; [14]) | MICantibiotic [MICcombo] (A. baumannii ATCC 17978 [10]; [14])
4 µg/mL: MICantibiotic [MICcombo] (K. pneumoniae 113250; [14]) | MICantibiotic [MICcombo] (E. coli ATCC 25922 [8]; [13]) | MICUTBLP [MICcombo] (A. baumannii AB027; [12])
Additive (0.5 < x ≤ 4 is additive): Interpretation (MSSE 81388 [4]; UTBLP + chloramphenicol) | Interpretation (MRSE 61589 [5]; UTBLP + chloramphenicol) | Interpretation (E. coli ATCC 25922 [8]; UTBLP + chloramphenicol) | Interpretation (E. coli 94474; UTBLP + rifampicin) | Interpretation (A. baumannii AB027; UTBLP + rifampicin) | Interpretation (A. baumannii ATCC 17978 [10]; UTBLP + chloramphenicol) | Interpretation (A. baumannii ATCC 17978 [10]; UTBLP + niclosamide)
>128 µg/mL: MIC (E. faecium ATCC 27270) | MIC (A. baumannii ATCC 17978 [1]) | MIC (E. coli ATCC 25922 [9]) | MIC (E. faecalis ATCC 29212)
2 µg/mL: MICantibiotic [MICcombo] (E. coli ATCC 25922 [8]; [17]) | MICantibiotic [MICcombo] (E. coli 94474; [14]) | MICantibiotic [MICcombo] (A. baumannii AB027; [13])
32 µg/mL: MICantibiotic [MICcombo] (K. pneumoniae 113250; [13]) | MICantibiotic [MICcombo] (E. coli 94474; [13])
